# Measurements from PMC7733455, “A novel multistage antiplasmodial inhibitor targeting Plasmodium falciparum histone deacetylase 1” (Cell Discovery, 2020).
# Read-outs that look alike come from different tables or passages of the source. Non-standard residues stand in square brackets, D forms with d. Residues, ends and D or L forms follow the SMILES beside them. ξ: configuration not given here. Aoe(9ξ) = N[C@@H](CCCCCC(=O)C1CO1)C(=O)O; dPip = O=C(O)[C@H]1CCCCN1
# What was measured:
# P. falciparum Dd2 = test: 3-day SYBR Green I GIA, multidrug-resistant strain Dd2; format: cell-based, Plasmodium falciparum; conditions: Plasmodium falciparum, 72 h; 3-day SYBR Green I GIA, multidrug-resistant strain Dd2; read-out: Antiplasmodial activity EC50, Dd2
# Experimental: (§1) A 3-day SYBR Green I inhibition EC50 assay was performed as described previously. Briefly, highly synchronized ring-stage parasites by 5% sorbitol (1% parasitemia and 2% hematocrit) were incubated in a 96-well plate with compounds in a total volume of 200 μL. […] The parasites were cultured for 72 h before SYBR Green I staining as described above. The EC50 was calculated by GraphPad Prism. DHA was used as a positive control, and the final concentration of DMSO was 1%.
# P. falciparum 3D7 [1] = test: 3-day SYBR Green I growth inhibition assay (GIA), strain 3D7; format: cell-based, Plasmodium falciparum; conditions: Plasmodium falciparum, 3D7, 72 h, read-out: Antiplasmodial activity EC50, 3D7
# Experimental: as §1
# [2] = In vitro cytotoxicity analysis (CellTiter-Glo), HepG2; conditions: human
# Experimental: (§2) In all, 1% DMSO was used as a negative control. The inhibition of each drug was normalized to that of the DMSO control. EC50 was calculated by GraphPad Prism. Three independent assays with two technical replicates each time were conducted in this experiment.
# HepG2 cells = test: as above; conditions: for Selectivity index (range over HepG2 and 293T): HepG2 and 293T vs 3D7
# Experimental: as §2
# [3] = In vitro cytotoxicity analysis (CellTiter-Glo), 293T; conditions: human
# Experimental: as §2
# 293T cells = test: as above
# Experimental: as §2
# [4] = tested on: parasite histone H3 acetylation; test: Western blot of histone H3 acetylation in parasites; format: cell-based, Plasmodium falciparum; conditions: 4 h treatment of asynchronous 3D7; quisinostat/JX21108 5 and 20 nM, SAHA 500 nM
# Experimental: Then the parasite samples were harvested and treated with 0.15% saponin to remove the RBC proteins and sonicated in 1% NP40 lysis buffer. After centrifugation at 12,000× g for 15 min, the supernatant was resuspended in a routine SDS loading buffer. Parasite proteins were separated by 10% SDS-PAGE and transferred onto PVDF membranes (Millipore). […] A2348) followed by a secondary antibody conjugated with HRP (Jackson Immuno Research Laboratories). The chemiluminescent HRP substrate Immobilon Western Kit (Millipore) was used for signal detection.
# P. falciparum 3D7 [5] = test: Ring-stage survival assay (RSA), sensitive strain 3D7; format: cell-based, Plasmodium falciparum; conditions: 700 nM
# P. falciparum GB4 = test: 3-day SYBR Green I GIA, strain GB4; format: cell-based; conditions: Plasmodium falciparum; GB4 resistant to chloroquine; read-out: Resistant isolates EC50, GB4
# Experimental: as §1
# [6] = tested on: P. falciparum isolate 6218; test: 3-day SYBR Green I GIA, field isolate 6218; format: cell-based; conditions: Plasmodium falciparum; artemisinin- and piperaquine-resistant isolate; read-out: Resistant isolates EC50, 6218
# Experimental: as §1
# [7] = tested on: P. falciparum isolate 6320; test: 3-day SYBR Green I GIA, field isolate 6320; format: cell-based; conditions: Plasmodium falciparum; artemisinin- and piperaquine-resistant isolate; read-out: Resistant isolates EC50, 6320
# Experimental: as §1
# [8] = tested on: P. falciparum clinical isolates 6218 and 6320; test: Ring-stage survival assay (RSA), isolates 6218 and 6320; format: cell-based, Plasmodium falciparum; conditions: 700 nM, 6 h exposure, synchronized rings of isolates 6218 and 6320
# Experimental: An RSA was performed as described previously[65] to evaluate the activity of JX21108 against the artemisinin- and piperaquine-resistant P. falciparum clinical isolates 6218 and 6320[43]. Briefly, parasites were highly synchronized at 0–3 hpi by a 60%/40%-Percoll gradient[66] followed by 5% D-sorbitol[67] treatment after 3 h. The parasite suspension (0.5%–1% parasitemia, 2% hematocrit) was incubated with compounds at 700 nM in a total volume of 2 mL in a 48-well plate for 6 h. After that, the culture mixture was washed three times with 15 mL of CM before another 66 h of cultivation with CM. A Giemsa-stained blood smear was made after cultivation. Parasitemia was counted from at least 10,000 RBCs by microscopy. The survival rate was calculated as the percentage of that in DMSO control. DHA at a concentration of 700 nM served as a positive control.
# P. falciparum C2A = test: 3-day SYBR Green I GIA, strain C2A; format: cell-based; conditions: Plasmodium falciparum, read-out: Resistant isolates EC50, C2A
# Experimental: as §1
# P. falciparum CP286 = test: 3-day SYBR Green I GIA, strain CP286; format: cell-based; conditions: Plasmodium falciparum; CP286 resistant to pyrimethamine and chloroquine; read-out: Resistant isolates EC50, CP286
# Experimental: as §1
# [9] = 3-day SYBR Green I GIA, drug-sensitive strain 3D7
# [10] = 293T cells, Cytotoxicity EC50, 293T, 72 h, CellTiter-Glo
SMILES,EC50 (P. falciparum Dd2) [nM],EC50 (P. falciparum 3D7 [1]; [9]) [nM],EC50 at 72 h ([2]; HepG2 cells) [nM],Selectivity index for HepG2 (EC50 HepG2/EC50 3D7) (HepG2 cells),"EC50 at 72 h [3, 10] [nM]",Selectivity index for 293T (EC50 293T/EC50 3D7) (293T cells),other results
Cl.Cn1cc(CN2CCC3(CCN(c4ncc(C(=O)NO)cn4)C3)C2)c2ccncc21 (centres unmarked) [JX21129],7.8 ± 1.3,8 ± 0.5,1530 ± 69,192,1120 ± 98,141,
Cl.O=C(NO)c1cnc(N2CCC3(CCN(Cc4ccc5c(c4)OCO5)C3)C2)nc1 (centres unmarked) [JX21140],5.4 ± 0.2,10.5 ± 0.1,493 ± 149,47,2450 ± 301,235,
"COc1ccc(-c2nc(N3CCOCC3)c3sc(CN(C)c4ncc(C(=O)NO)cn4)cc3n2)cn1 [Fimepinostat, reference compound]",,63,70,1,69,1,
O=C(CCCCCCC(=O)Nc1ccccc1)NO [SAHA],,,,,,,pan-acetylation levels of parasite histone H3 [4]: greatly increased the pan-acetylation levels of parasite histone H3
CN(c1ncc(C(=O)NO)cn1)C1CCN(Cc2cn(C)c3ccccc23)CC1.Cl [JX21006],32 ± 2.5,26.5 ± 1.2,37 ± 10,1,118 ± 24,4,
Cl.Cn1cc(CN2CCC3(CCCN(c4ncc(C(=O)NO)cn4)C3)CC2)c2ccccc21 [JX21017],32.4 ± 1.8,28.9 ± 1.2,2350 ± 93,98,4497 ± 33,156,
"C[C@H]1[C@@H](O)O[C@@H]2O[C@@]3(C)CC[C@H]4[C@H](C)CC[C@@H]1[C@@]24OO3 [DHA, dihydroartemisinin, reference compound]",,,,,,,RSA effect on ring-stage parasites of 3D7 (P. falciparum 3D7 [5]): efficiently killed the ring-stage parasites; EC50 (P. falciparum GB4): 3.2 ± 1.2 nM; EC50 [6]: 5.5 ± 1.1 nM; EC50 [7]: 6.5 ± 1.4 nM; RSA survival rate [8]: ~8%; EC50 (P. falciparum C2A): 3.7 ± 2.4 nM; EC50 (P. falciparum CP286): 5.6 ± 2.4 nM
"O=C(CCCCC[C@@H]1NC(=O)[C@H]2CCCCN2C(=O)[C@H](Cc2ccccc2)NC(=O)[C@H](Cc2ccccc2)NC1=O)C1CO1 (some centres unmarked) [Trapoxin A, reference compound] (cyclo(FF[dPip][Aoe(9ξ)]))",,,,77,,9,EC50 (P. falciparum 3D7 [1]): 82 nM; EC50 at 72 h [2]: 6320 nM; EC50 at 72 h [3]: 724 nM
Cl.Cn1cc(CN2CC3CN(c4ncc(C(=O)NO)cn4)CC3C2)c2ccccc21 (centres unmarked) [JX21002],7 ± 0.2,4.4 ± 0.2,128 ± 2,29,307 ± 4,70,Selectivity index (range over HepG2 and 293T) (HepG2 cells): 24–70

# Continued, in another order:
EC50 (P. falciparum Dd2) [nM],EC50 (P. falciparum 3D7 [1]; [9]) [nM],SMILES,EC50 at 72 h ([2]; HepG2 cells) [nM],Selectivity index for HepG2 (EC50 HepG2/EC50 3D7) (HepG2 cells),"EC50 at 72 h [3, 10] [nM]",Selectivity index for 293T (EC50 293T/EC50 3D7) (293T cells),other results
7.2 ± 0.2,4.8 ± 0.1,Cl.O=C(NO)c1cnc(N2CCC3(CCN(Cc4csc5ccccc45)C3)C2)nc1 (centres unmarked) [JX21115],864 ± 76,179,482 ± 42,100,
6.4 ± 1.3,5.61 ± 0.04,Cl.O=C(NO)c1cnc(N2CCC3(CCN(Cc4cc5ccccc5s4)C3)C2)nc1 (centres unmarked) [JX21118],1670 ± 230,298,1640 ± 122,292,
3.4 ± 2.2,13.6 ± 4.2,COc1ccc2c(CN3CCC4(CCN(c5ncc(C(=O)NO)cn5)C4)C3)cn(C)c2c1.Cl (centres unmarked) [JX21142],975 ± 1,72,1230 ± 102,90,
1.736 ± 0.005,3.3 ± 0.5,Cl.Cn1cc(CN2CCC3(CCN(c4ncc(C(=O)NO)cn4)C3)C2)c2cc(Br)ccc21 (centres unmarked) [JX21141],294 ± 45,88,633 ± 209,189,
3 ± 0.1,1.6 ± 0.3,COc1ccc2c(c1)c(CN1CCC3(CCN(c4ncc(C(=O)NO)cn4)C3)C1)cn2C.Cl (centres unmarked) [JX21104],534 ± 45,176,659 ± 128,217,
7.61 ± 0.05,6.4 ± 0.3,Cl.O=C(NO)c1cnc(N2CCC3(CCN(Cc4cc5ccccc5o4)C3)C2)nc1 (centres unmarked) [JX21117],1640 ± 25,255,1610 ± 334,252,
3.2 ± 0.1,3 ± 0.7,Cn1cc(CN2CCC3(CCN(c4ncc(C(=O)NO)cn4)C3)C2)c2ccccc21 (centres unmarked) [JX21011],113 ± 1,38,72 ± 10,24,Selectivity index (range over HepG2 and 293T) (HepG2 cells): 24–70
7.2 ± 0.3,6.2 ± 1.3,Cl.Cn1c(CN2CCC3(CCN(c4ncc(C(=O)NO)cn4)C3)C2)cc2ccccc21 (centres unmarked) [JX21123],1250 ± 62,202,1200 ± 156,193,
4.3 ± 0.5,5.8 ± 0.9,Cl.Cn1nc(CN2CCC3(CCN(c4ncc(C(=O)NO)cn4)C3)C2)c2ccccc21 (centres unmarked) [JX21124],1130 ± 168,195,1330 ± 29,229,
2.18 ± 0.02,3.5 ± 0.2,Cl.O=C(NO)c1cnc(N2CCC3(CCN(Cc4ccc5ccccc5c4)C3)C2)nc1 (centres unmarked) [JX21101],651 ± 63,186,1160 ± 193,331,
7.5 ± 2,8.4 ± 0.4,Cl.Cn1cc(CN2CCC3(CCN(c4ncc(C(=O)NO)cn4)C3)C2)c2cccnc21 (centres unmarked) [JX21130],1180 ± 84,140,4640 ± 375,552,
21.2 ± 0.9,28.8 ± 18.5,Cl.O=C(NO)c1cnc(N2CCC3(CCN(Cc4c5ccccc5cc5ccccc45)C3)C2)nc1 (centres unmarked) [JX21138],1310 ± 14,45,1990 ± 559,69,
10.7 ± 0.2,16.9 ± 0.8,Cl.Cn1cc(CN2CC3(CCN(c4ncc(C(=O)NO)cn4)CC3)C2)c2ccccc21 [JX21014],348 ± 24,21,1130 ± 26,67,
7 ± 0.3,9.8 ± 0.3,Cl.O=C(NO)c1cnc(N2CCC3(CCN(Cc4ccc5c(c4)CCO5)C3)C2)nc1 (centres unmarked) [JX21109],1310 ± 73,133,2560 ± 113,260,
